Values of other authors as cited in publication PMC7610473, “Axial functionalisation of photoactive diazido platinum(iv) anticancer complexes” (Inorganic chemistry frontiers, 2020).

Design: method as in PMID 9399704

pK a: 1.98
Compound: O=C(O)c1cc2ccc(O)cc2oc1=O [7-hydroxycoumarin-3 carboxylic acid]
